The results in this text go back to BindingDB's records for doi:10.1021/jm0510934 (Abbott Laboratories, 2006).

Sequence of Growth hormone secretagogue receptor type 1 (Q92847 whole entry): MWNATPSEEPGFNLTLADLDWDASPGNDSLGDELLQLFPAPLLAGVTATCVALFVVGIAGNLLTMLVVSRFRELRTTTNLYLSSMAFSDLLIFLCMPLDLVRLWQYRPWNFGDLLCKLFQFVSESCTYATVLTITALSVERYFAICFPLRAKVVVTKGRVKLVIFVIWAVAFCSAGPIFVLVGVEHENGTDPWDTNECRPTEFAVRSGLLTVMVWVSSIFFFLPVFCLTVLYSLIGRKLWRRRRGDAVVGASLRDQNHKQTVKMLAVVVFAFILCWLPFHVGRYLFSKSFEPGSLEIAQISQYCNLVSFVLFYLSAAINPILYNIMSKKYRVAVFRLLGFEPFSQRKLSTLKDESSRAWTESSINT

The first test concerns the target Growth hormone secretagogue receptor type 1 (Homo sapiens, UniProt Q92847). As to the kind of experiment: Receptor Binding Studies and GHS-R Ca2+ Flux Assay.
Details: not given
Here is the method: Specific binding was determined by incubation of membranes from GHS-R1a transfected CHO-K cells with 125I-His9-ghrelin in the presence of increasing concentrations of compounds to obtain IC50. Fluorescence emissions from 96 wells were measured simultaneously at excitation and emission wavelength of 488 and 520 nm, respectively. During this time, agonist responses in the absence of ghrelin, or the antagonist effects of compounds on ghrelin-stimulated calcium flux were recorded. Sigmoidal curves were fitted and EC50/IC50 values were determined by GraphPad Prism software.
For orientation: A change in cytosolic calcium serves as a functional read-out for many receptors and channels.
Regarding `N#Cc1ccc(COc2ccc(-c3c(N)nc(N)nc3COCc3ccccc3)cc2)cc1` [2,4-diaminopyrimidine derivative, 10b], the IC50 (as a rule, the concentration that gives 50% inhibition) is 3610 nM.

Turning to `CCc1nc(N)nc(N)c1-c1ccc(NCc2ccc(S(C)(=O)=O)cc2)c(Br)c1` [5-(3-bromo-4-{[(4-methanesulfonylphenyl)methyl]amino}phenyl)-6-ethylpyrimidine-2,4-diamine], the IC50 was 42 nM.

The compound `CCc1nc(N)nc(N)c1-c1ccc(NCc2ccc(S(C)(=O)=O)cc2)c(Cl)c1` [5-(3-chloro-4-{[(4-methanesulfonylphenyl)methyl]amino}phenyl)-6-ethylpyrimidine-2,4-diamine] returned an IC50 of 11 nM.

`Nc1nc(N)c(-c2ccc(NCc3ccc(Cl)cc3)cc2)c(CCc2ccccc2)n1` [5-(4-{[(4-chlorophenyl)methyl]amino}phenyl)-6-(2-phenylethyl)pyrimidine-2,4-diamine] returned an IC50 of 3350 nM.

`Nc1nc(N)c(-c2ccc(NCc3ccccc3)cc2)c(COCc2ccccc2)n1` [5-[4-(benzylamino)phenyl]-6-[(benzyloxy)methyl]pyrimidine-2,4-diamine] showed an IC50 of 980 nM.

Regarding `COc1ccc(CNc2ccc(-c3c(N)nc(N)nc3COCc3ccccc3)cc2)cc1` [6-[(benzyloxy)methyl]-5-(4-{[(4-methoxyphenyl)methyl]amino}phenyl)pyrimidine-2,4-diamine], the IC50 stood at 90 nM.

Consider `Nc1nc(N)c(-c2ccc(CNc3ccc([N+](=O)[O-])cc3)cc2)c(COCc2ccccc2)n1` [6-[(benzyloxy)methyl]-5-(4-{[(4-nitrophenyl)amino]methyl}phenyl)pyrimidine-2,4-diamine], for which the IC50 came out at 16 nM.

For the compound `Nc1nc(N)c(-c2ccc(NCc3ccc(Cl)s3)cc2)c(COCc2ccccc2)n1` [6-[(benzyloxy)methyl]-5-(4-{[(5-chlorothiophen-2-yl)methyl]amino}phenyl)pyrimidine-2,4-diamine], the IC50 came to 320 nM.

Take `Nc1nc(N)c(-c2ccc(NCc3csc(Cl)c3)cc2)c(COCc2ccccc2)n1` [6-[(benzyloxy)methyl]-5-(4-{[(5-chlorothiophen-3-yl)methyl]amino}phenyl)pyrimidine-2,4-diamine]: the IC50 was 170 nM.

The compound `CC(C)(C)CNc1ccc(-c2c(N)nc(N)nc2COCc2ccccc2)cc1` [6-[(benzyloxy)methyl]-5-{4-[(2,2-dimethylpropyl)amino]phenyl}pyrimidine-2,4-diamine] returned an IC50 of 700 nM.

Regarding `CS(=O)(=O)c1ccc(COc2ccc(-c3c(N)nc(N)nc3COCc3ccccc3)cc2)cc1` [6-[(benzyloxy)methyl]-5-{4-[(4-methanesulfonylphenyl)methoxy]phenyl}pyrimidine-2,4-diamine], the IC50 was 48 nM.

As to `Nc1nc(N)c(-c2ccc(NCc3ccncc3)cc2)c(COCc2ccccc2)n1` [6-[(benzyloxy)methyl]-5-{4-[(pyridin-4-ylmethyl)amino]phenyl}pyrimidine-2,4-diamine], the IC50 was determined as 86 nM.

Compound `Nc1nc(N)c(-c2ccc(NCc3cnc4ccccc4c3)cc2)c(COCc2ccccc2)n1` [6-[(benzyloxy)methyl]-5-{4-[(quinolin-3-ylmethyl)amino]phenyl}pyrimidine-2,4-diamine] registered an IC50 of 780 nM.

For `CCc1nc(N)nc(N)c1-c1ccc(CNc2ccc(S(C)(=O)=O)cc2)cc1` [6-ethyl-5-(4-{[(4-methanesulfonylphenyl)amino]methyl}phenyl)pyrimidine-2,4-diamine], the IC50 came to 120 nM.

Turning to `CCc1nc(N)nc(N)c1-c1ccc(N(C)Cc2ccc(S(C)(=O)=O)cc2)cc1` [6-ethyl-5-(4-{[(4-methanesulfonylphenyl)methyl](methyl)amino}phenyl)pyrimidine-2,4-diamine], the half-inhibitory concentration (IC50) was 32 nM.

`CCc1nc(N)nc(N)c1-c1ccc(CNc2ccc([N+](=O)[O-])cc2)cc1` [6-ethyl-5-(4-{[(4-nitrophenyl)amino]methyl}phenyl)pyrimidine-2,4-diamine]: the IC50 amounted to 190 nM.

The test is the same for the next values; noted with them: pH 7.4; 22 °C.
On to `CS(=O)(=O)c1ccc(CNc2ccc(-c3c(N)nc(N)nc3COCc3ccccc3)cc2)cc1`, for which the IC50 is 7.2 nM.

The compound `CC(=O)c1ccc(CNc2ccc(-c3c(N)nc(N)nc3COCc3ccccc3)cc2)cc1` [1-(4-{[(4-{2,4-diamino-6-[(benzyloxy)methyl]pyrimidin-5-yl}phenyl)amino]methyl}phenyl)ethan-1-one] yielded a 50% inhibitory concentration (IC50) of 10 nM.

Consider `CCc1nc(N)nc(N)c1-c1ccc(NCc2ccc(C(C)O)cc2)cc1` (stereo unspecified) [1-[4-({[4-(2,4-diamino-6-ethylpyrimidin-5-yl)phenyl]amino}methyl)phenyl]ethan-1-ol], for which the IC50 amounted to 110 nM.

`CCc1nc(N)nc(N)c1-c1ccc(NCc2ccc(C(C)=O)cc2)cc1` [1-[4-({[4-(2,4-diamino-6-ethylpyrimidin-5-yl)phenyl]amino}methyl)phenyl]ethan-1-one] gave an IC50 of 110 nM.

For `CCc1nc(N)nc(N)c1-c1ccc(NCc2ccc(C#N)cc2)cc1` [4-({[4-(2,4-diamino-6-ethylpyrimidin-5-yl)phenyl]amino}methyl)benzonitrile], the half-maximal inhibitory concentration (IC50) stood at 780 nM.

`N#Cc1ccc(CNc2ccc(-c3c(N)nc(N)nc3COCc3ccccc3)cc2)cc1` [4-{[(4-{2,4-diamino-6-[(benzyloxy)methyl]pyrimidin-5-yl}phenyl)amino]methyl}benzonitrile] came in with an IC50 of 19 nM.

Consider `CCc1nc(N)nc(N)c1-c1ccc(NCc2ccnc(Cl)c2)cc1` [5-(4-{[(2-chloropyridin-4-yl)methyl]amino}phenyl)-6-ethylpyrimidine-2,4-diamine], for which the IC50 was 220 nM.

In turn, `CCc1nc(N)nc(N)c1-c1ccc(NCc2cc(F)c(S(C)(=O)=O)c(F)c2)cc1` [5-(4-{[(3,5-difluoro-4-methanesulfonylphenyl)methyl]amino}phenyl)-6-ethylpyrimidine-2,4-diamine] yielded an IC50 of 45 nM.

`CCc1nc(N)nc(N)c1-c1ccc(NCc2ccc(Cl)cc2)cc1` [5-(4-{[(4-chlorophenyl)methyl]amino}phenyl)-6-ethylpyrimidine-2,4-diamine]: the 50% inhibitory concentration (IC50) was determined as 1380 nM.

Consider `CCc1nc(N)nc(N)c1-c1ccc(NCc2csc(Cl)c2)cc1` [5-(4-{[(5-chlorothiophen-3-yl)methyl]amino}phenyl)-6-ethylpyrimidine-2,4-diamine], for which the IC50 amounted to 790 nM.

`Nc1nc(N)c(-c2ccc(NCc3ccnc(Cl)c3)cc2)c(COCc2ccccc2)n1` [6-[(benzyloxy)methyl]-5-(4-{[(2-chloropyridin-4-yl)methyl]amino}phenyl)pyrimidine-2,4-diamine] showed an IC50 of 3.6 nM.

Regarding `Nc1nc(N)c(-c2ccc(NCc3ccc(Cl)cc3)cc2)c(COCc2ccccc2)n1` [6-[(benzyloxy)methyl]-5-(4-{[(4-chlorophenyl)methyl]amino}phenyl)pyrimidine-2,4-diamine], the IC50 is 180 nM.

`Nc1nc(N)c(-c2ccc(NCc3ccc([N+](=O)[O-])cc3)cc2)c(COCc2ccccc2)n1` [6-[(benzyloxy)methyl]-5-(4-{[(4-nitrophenyl)methyl]amino}phenyl)pyrimidine-2,4-diamine] came in with an IC50 of 5.8 nM.

Take `Nc1nc(N)c(-c2ccc(NCc3ccc(S(=O)(=O)C(F)(F)F)cc3)cc2)c(COCc2ccccc2)n1` [6-[(benzyloxy)methyl]-5-[4-({[4-(trifluoromethane)sulfonylphenyl]methyl}amino)phenyl]pyrimidine-2,4-diamine]: the IC50 was 85 nM.

In turn, `Nc1nc(N)c(-c2ccc(NCc3ccc(C(F)(F)F)cc3)cc2)c(COCc2ccccc2)n1` [6-[(benzyloxy)methyl]-5-[4-({[4-(trifluoromethyl)phenyl]methyl}amino)phenyl]pyrimidine-2,4-diamine] gave an IC50 of 97 nM.

For the compound `CCc1nc(N)nc(N)c1-c1ccc(NCc2ccc(S(C)(=O)=O)cc2)cc1` [6-ethyl-5-(4-{[(4-methanesulfonylphenyl)methyl]amino}phenyl)pyrimidine-2,4-diamine], the IC50 was 12 nM.

`CCc1nc(N)nc(N)c1-c1ccc(NCc2ccc([N+](=O)[O-])cc2)cc1` [6-ethyl-5-(4-{[(4-nitrophenyl)methyl]amino}phenyl)pyrimidine-2,4-diamine]: the IC50 is 23 nM.

As to `CCc1nc(N)nc(N)c1-c1ccc(NCc2ccc(S(=O)(=O)C(F)(F)F)cc2)cc1` [6-ethyl-5-[4-({[4-(trifluoromethane)sulfonylphenyl]methyl}amino)phenyl]pyrimidine-2,4-diamine], the IC50 was determined as 690 nM.

The same test, now with this note: pH 7.4; 22 °C; read-out: IC50.
`Nc1nc(N)c(-c2ccc(NCc3ccc(S(=O)(=O)C(F)(F)F)cc3)cc2)c(COCc2ccccc2)n1` [6-[(benzyloxy)methyl]-5-[4-({[4-(trifluoromethane)sulfonylphenyl]methyl}amino)phenyl]pyrimidine-2,4-diamine]: the IC50 was determined as 1 nM.

Consider `CCc1nc(N)nc(N)c1-c1ccc(NCc2ccc(S(=O)(=O)C(F)(F)F)cc2)cc1` [6-ethyl-5-[4-({[4-(trifluoromethane)sulfonylphenyl]methyl}amino)phenyl]pyrimidine-2,4-diamine], for which the IC50 came out at 21 nM.
